Reference: PMC6956804, “Potent antibacterial activity of MSI-1 derived from the magainin 2 peptide against drug-resistant bacteria” (Theranostics, 2020)
≈ marks a conversion by molar mass, not a printed value. Peptide text beside a SMILES is read from it.

Key:
[1] = system: MRSA, Methicillin-resistant clinical isolates; assay type: cell-based, Staphylococcus aureus
Experimental: (§1) Bacterial strains were purchased from the American Type Culture Collection (ATCC). All clinical strains were isolated from human clinical specimens by the Medical Laboratory Center of Zhongda Hospital (Nanjing, Jiangsu, China). Ndm-1, tem-1, ctx-m-1, shv-1 -carrying bacteria were constructed as previously described. The recombinant bacteria carrying drug-resistant genes were prepared in LB nutrient and induced by IPTG (1 mM) for 4 h before text. Other bacterial strains were respectively prepared in MHB and Columbia Blood Agar Base.
(§2) A standard micro-broth serial dilution assay was used to measure MIC of peptides. MIC was obtained by a microplate reader at 600 nm. MBC was determined as previously described.

[2] = system: S. epidermidis, Amoxicillin-, Cephalexin- and Levofloxacin- resistant clinical isolates; assay type: cell-based
Experimental: as §1, §2

[3] = system: E. coli, Penicillin-, Imipenem- and Ceftazidime- resistant clinical isolates; assay type: cell-based
Experimental: as §1, §2

[4] = system: P. aeruginosa, Penicillin-, Imipenem- and Ceftazidime- resistant clinical isolates; assay type: cell-based
Experimental: as §1, §2

[5] = system: S. aureus, Amoxicillin-, Cephalexin- and Levofloxacin- resistant clinical isolates; assay type: cell-based
Experimental: as §1, §2

[6] = system: E. coli BL21(DE3)-NDM-1 (ndm-1-carrying recombinant E. coli); assay type: cell-based
Experimental: as §1, §2

[7] = system: S. pyogenes, Penicillin-, Erythromycin- and Levofloxacin- resistant clinical isolates; assay type: cell-based
Experimental: as §1, §2

[8] = system: S. pneumoniae, Amoxicillin-, Cephalexin- and Levofloxacin- resistant clinical isolates; assay type: cell-based
Experimental: as §1, §2

[9] = system: K. pneumonia, Penicillin-, Imipenem- and Ceftazidime- resistant clinical isolates; assay type: cell-based
Experimental: as §1, §2

Helicobacterpylori SS1 = assay type: cell-based; conditions: Helicobacterpylori SS1
Experimental: as §1, §2

C57BL/6 mice = test: Acute toxicity in mice; assay type: in vivo; conditions: intraperitoneal
Experimental: C57BL/6 mice (n=6/group) were intraperitoneally injected with MSI-1 (0, 10, 20, 40, 80 and 100 mg/kg/body weight, respectively). Animals were inspected for adverse effects for 30 min, and survival was monitored for 12 h thereafter. The toxicity severity was classified as Malik U et al previously described.

murine spleen cells = test: Cytotoxicity, MTT; assay type: cell-based; conditions: 48 h
Experimental: The cytotoxicity of peptides towards murine spleen cells (obtained from healthy murine with aseptic technique) and other eukaryotic cells (HaCaT, GES-1, human L02, B16F10, A549, H460) were determined by routine MTT method. Cells were incubated with serially diluted peptides (final concentrations: 1.563, 3.125, 6.25, 12.5, 25, 50, 100 and 200 μM) for 48 h.

SMILES: CC[C@H](C)[C@H](NC(=O)CN)C(=O)NCC(=O)N[C@@H](C)C(=O)N[C@H](C(=O)N[C@@H](CC(C)C)C(=O)N[C@@H](CCCCN)C(=O)N[C@H](C(=O)N[C@@H](CC(C)C)C(=O)N[C@H](C(=O)N[C@H](C(=O)NCC(=O)N[C@@H](CC(C)C)C(=O)N1CCC[C@H]1C(=O)N[C@@H](C)C(=O)N[C@@H](CC(C)C)C(=O)N[C@H](C(=O)N[C@@H](CO)C(=O)N[C@@H](Cc1c[nH]c2ccccc12)C(=O)N[C@H](C(=O)N[C@@H](CCCCN)C(=O)N[C@@H](CCCNC(=N)N)C(=O)N[C@@H](CCCCN)C(=O)N[C@@H](CCCNC(=N)N)C(=O)N[C@@H](CCC(N)=O)C(=O)N[C@@H](CCC(N)=O)C(N)=O)[C@@H](C)CC)[C@@H](C)CC)[C@@H](C)O)[C@@H](C)O)C(C)C)C(C)C [Melittin]
- MBC [1]: 8 µg/mL (≈ 2.81 µM)
- MIC [1]: 4 µg/mL (≈ 1.41 µM)
- MBC [2]: 16 µg/mL (≈ 5.62 µM)
- MIC [2]: 4 µg/mL (≈ 1.41 µM)
- MBC [3]: 8 µg/mL (≈ 2.81 µM)
- MIC [3]: 4 µg/mL (≈ 1.41 µM)
- MBC [4]: 8 µg/mL (≈ 2.81 µM)
- MIC [4]: 4 µg/mL (≈ 1.41 µM)
- MBC [5]: 32 µg/mL (≈ 11.2 µM)
- MIC [5]: 8 µg/mL (≈ 2.81 µM)
- MBC [6]: 8 µg/mL (≈ 2.81 µM)
- MIC [6]: 4 µg/mL (≈ 1.41 µM)
- MBC [7]: 16 µg/mL (≈ 5.62 µM)
- MIC [7]: 8 µg/mL (≈ 2.81 µM)
- MBC [8]: 16 µg/mL (≈ 5.62 µM)
- MIC [8]: 8 µg/mL (≈ 2.81 µM)
- MBC [9]: 16 µg/mL (≈ 5.62 µM)
- MIC [9]: 8 µg/mL (≈ 2.81 µM)
- MBC (Helicobacterpylori SS1): 16 µg/mL (≈ 5.62 µM)
- MIC (Helicobacterpylori SS1): 8 µg/mL (≈ 2.81 µM)

SMILES: CC[C@H](C)[C@H](NC(=O)CN)C(=O)N[C@@H](Cc1c[nH]c2ccccc12)C(=O)N[C@@H](CCCCN)C(=O)N[C@@H](Cc1ccccc1)C(=O)N[C@@H](CC(C)C)C(=O)N[C@@H](CCCCN)C(=O)N[C@@H](CCCCN)C(=O)N[C@@H](C)C(=O)N[C@@H](CCCCN)C(=O)N[C@@H](CCCCN)C(=O)N[C@@H](Cc1ccccc1)C(=O)N[C@@H](Cc1c[nH]c2ccccc12)C(N)=O [MSI-3] (H-GIWKFLKKAKKFW-NH2)
- deaths (C57BL/6 mice; 100 mg/kg): some of the mice in the MSI-3-treated group died
- adverse effects at approximately 5 min post injection (C57BL/6 mice; dose of peptide above 40 mg/kg, n=6/group): displayed narrowing of the eyes, one mouse was crouching and cuddling, and the other mouse showed convulsions
- effect on the survival of mouse spleen cells compared with the parent peptide (murine spleen cells): significantly higher
